One experiment relates to occludin. The experiment in a line: Occludin expression in high glucose-treated hRMECs (Western blot). It counts as cell-based, human. The source says: Cell Culture. Primary cultures of human retina microvascular endothelial cells (hRMECs) were purchased from the Applied Cell Biology Research Institute and grown on attachment factor-coated plates in cell systems complete (CSC) medium (Cell Systems, Kirkland, Wash.) supplemented with 20% fetal bovine serum, culture boost (animal derived growth factors) and bac-off (antibiotics). The primary hRMECs were used in their passages 4 to 6. The 18-a.a. apoE mimetic peptide apoEdp (SEQ ID NO:3, Ac-LRKLRKRLLLRKLRKRLL-amide), derived from the human apolipoprotein E receptor-binding region (see SED ID NO:1) between residues 141 and 149, was synthesized (Genemed, Arlington, Tex.) with a purity of greater than 95%. The apoEdp peptide was dissolved in phosphate-buffered saline (“PBS”) at a concentration appropriate for further experimental use. […]
Western Blotting. […] The total protein concentration was determined using a BCA protein assay kit (Pierce, Rockford, Ill.). […] To ensure the equal loading of protein in each lane, each membrane was stripped and re-probed with an antibody against β-actin, and the chemiluminescence was detected as described previously. After scanning the blots with a flatbed scanner, band intensities were analyzed using ImageJ (NIH) and the relative intensity values were normalized to control values. […]

The next experiment concerns HS. The experiment in a line: Streptozotocin-induced diabetic mice, loss of HS. It counts as in vivo, mouse. Conditions: either 14-day eye drop application or systemic i/p injection. The method, then:
Streptozotocin (STZ) induced diabetes. Twelve week old C57Bl/6 mice were used for this study. Mice were induced to have diabetes by intraperitoneal injection of 170 μg/g of streptozotocin (Sigma Aldrich, St. Louis, Mo.). Controls were injected with a vehicle (0.01M sodium citrate buffer). On the third day after STZ treatment, mice tail veins were bled to test the hyperglycemic status using blood sugar detection kit (Lifescan; Johnson & Johnson, Milpitas, Calif.). Mice with blood sugar levels of >300 mg/dL on the third day after STZ treatment were considered diabetic. Eye drop treatment containing 1% apoEdp or vehicle PBS was continued 4 times a day for 14 consecutive days. Intra-peritoneal (i/p) injection containing 40 mg/kg of apoEdp or vehicle control PBS was administered once daily for 14 consecutive days. On the 15th day post-treatment, mice were euthanized, their eyes enucleated, and the retinas dissected out to use for mRNA or Western blot analysis.
Increased vascular permeability in diabetic retinopathy (DR) is reported to result in a concomitant increase of VEGF. The VEGF pathway is known to play a role in breakdown of the BRB through a mechanism involving the down regulation of tight junction proteins in the retinal microvasculature (20).

Residues, ends and D or L forms follow the SMILES beside them.

Consider `CC(=O)N[C@@H](CC(C)C)C(=O)N[C@@H](CCCNC(=N)N)C(=O)N[C@@H](CCCCN)C(=O)N[C@@H](CC(C)C)C(=O)N[C@@H](CCCNC(=N)N)C(=O)N[C@@H](CCCCN)C(=O)N[C@@H](CCCNC(=N)N)C(=O)N[C@@H](CC(C)C)C(=O)N[C@@H](CC(C)C)C(=O)N[C@@H](CC(C)C)C(=O)N[C@@H](CCCNC(=N)N)C(=O)N[C@@H](CCCCN)C(=O)N[C@@H](CC(C)C)C(=O)N[C@@H](CCCNC(=N)N)C(=O)N[C@@H](CCCCN)C(=O)N[C@@H](CCCNC(=N)N)C(=O)N[C@@H](CC(C)C)C(=O)N[C@@H](CC(C)C)C(N)=O` [apoEdp, Ac-LRKLRKRLLLRKLRKRLL-amide] (Ac-LRKLRKRLLLRKLRKRLL-NH2), for which, in the experiment on occludin (hRMECs co-incubated with 100 μM apoEdp and 30 mM glucose), the “Occludin expression versus 30 mM glucose alone” value is given as “greater levels of occludin”. The “High glucose-induced loss of tight junction protein occludin” value in the experiment with occludin (hRMECs, 30 mM glucose 72 hours, 50 or 100 μM apoEdp) was “reduced”. Also, the “Loss of HS” value with HS is “reversed”.

The values are drawn from patent US9636299B2, “Method for treating diabetic retinopathy” (XAVIER UNIVERSITY OF LOUISIANA, priority 2012, dated 2017).
